The values below come from patent US7193085B2, “Acid Red 82 in mixtures” (Lanxess Deutschland GmbH, priority 2002, dated 2007).

The nature of the series: Solubility of the dye. It is filed as physicochemical.

For the compound `Cc1ccc(Nc2ccc3c4c(cc(=O)n3C)-c3ccccc3C(=O)c24)c(S(=O)(=O)[O-])c1.[Na+]` [Acid Red 80, C. I. Acid Red 80], the “solubility compared with Acid Red 82” value was “less than that of Acid Red 82”.
